Assay results: US20100190788A1, “Amide derivatives as kinase inhitors” (priority 2005, published 2010)

target: T1, human ROCKα/ROCKII mix (Homo sapiens, UniProt O75116); experiment: ROCK inhibition, fluorescence polarization (FP) assay with ROCK IMAP Kit; type: biochemical; conditions: Table 1, compounds of Formula IV20
T1 construct: purchased Upstate Biotechnology 14-451
Description: The compounds were tested for inhibition of human ROCKα/ROCKII mix.
The inhibition assays were performed with a fluorescence polarization (FP) assay using the commercially available ROCK IMAP Kit from Molecular Devices (Product ID. No. R8093), essentially in accordance with the protocol supplied by the manufacturer. […] The enzyme mix ROCKα/ROCKII was obtained from Upstate Biotechnology (Product ID No 14-451).
In summary, all compounds were screened in the wells of a 384 well plate for enzymatic inhibition with concentrations varying from 100 μM to 0.3 nM using a stepwise 3 (or 2)-fold dilution.
To perform the assay, 1 μl of a solution of the compound to be tested in DMSO (at each concentration) was added to 2 μl of a solution of the enzyme in 10 mM Tris-HCl, 10 mM MgCl2, 0.1% BSA, 0.05% NaN3, pH 7.2. The final concentration of the enzyme was 2.6 nM.
After incubating for 30 minutes at RT, 2 μl of a mixture of ATP and the protein substrate in 10 mM Tris-HCl, 10 mM MgCl2, 0.1% BSA, 0.05% NaN3, pH 7.2 was added. The final concentration of the ATP was 10 μM and final concentration of protein substrate was 0.2 μM.
After incubating for 60 minutes at RT, 12 μl of the IMAP Binding Solution (mix of the IMAP Binding Buffer A (1×) and the IMAP Binding Reagent (from the ROCK IMAP kit)) was added.
The mixture thus obtained (total volume: 17 μl) was incubated for 60 minutes at RT, upon which the fluorescence polarization was measured using an automated plate reader (Perkin Elmer, Model Envision 2100-0010 HTS) with FP filters: excitation filter FITC FP 480 and emission filters FITC FP P-pol 535 and FITC FP S-pol 535 (Perkin-Elmer). The results were fitted to a curve using the XL-Fit algorithm and IC50 values were calculated for each fitted curve, again using the XL-Fit algorithm.

T1 sequence (O75116 whole entry): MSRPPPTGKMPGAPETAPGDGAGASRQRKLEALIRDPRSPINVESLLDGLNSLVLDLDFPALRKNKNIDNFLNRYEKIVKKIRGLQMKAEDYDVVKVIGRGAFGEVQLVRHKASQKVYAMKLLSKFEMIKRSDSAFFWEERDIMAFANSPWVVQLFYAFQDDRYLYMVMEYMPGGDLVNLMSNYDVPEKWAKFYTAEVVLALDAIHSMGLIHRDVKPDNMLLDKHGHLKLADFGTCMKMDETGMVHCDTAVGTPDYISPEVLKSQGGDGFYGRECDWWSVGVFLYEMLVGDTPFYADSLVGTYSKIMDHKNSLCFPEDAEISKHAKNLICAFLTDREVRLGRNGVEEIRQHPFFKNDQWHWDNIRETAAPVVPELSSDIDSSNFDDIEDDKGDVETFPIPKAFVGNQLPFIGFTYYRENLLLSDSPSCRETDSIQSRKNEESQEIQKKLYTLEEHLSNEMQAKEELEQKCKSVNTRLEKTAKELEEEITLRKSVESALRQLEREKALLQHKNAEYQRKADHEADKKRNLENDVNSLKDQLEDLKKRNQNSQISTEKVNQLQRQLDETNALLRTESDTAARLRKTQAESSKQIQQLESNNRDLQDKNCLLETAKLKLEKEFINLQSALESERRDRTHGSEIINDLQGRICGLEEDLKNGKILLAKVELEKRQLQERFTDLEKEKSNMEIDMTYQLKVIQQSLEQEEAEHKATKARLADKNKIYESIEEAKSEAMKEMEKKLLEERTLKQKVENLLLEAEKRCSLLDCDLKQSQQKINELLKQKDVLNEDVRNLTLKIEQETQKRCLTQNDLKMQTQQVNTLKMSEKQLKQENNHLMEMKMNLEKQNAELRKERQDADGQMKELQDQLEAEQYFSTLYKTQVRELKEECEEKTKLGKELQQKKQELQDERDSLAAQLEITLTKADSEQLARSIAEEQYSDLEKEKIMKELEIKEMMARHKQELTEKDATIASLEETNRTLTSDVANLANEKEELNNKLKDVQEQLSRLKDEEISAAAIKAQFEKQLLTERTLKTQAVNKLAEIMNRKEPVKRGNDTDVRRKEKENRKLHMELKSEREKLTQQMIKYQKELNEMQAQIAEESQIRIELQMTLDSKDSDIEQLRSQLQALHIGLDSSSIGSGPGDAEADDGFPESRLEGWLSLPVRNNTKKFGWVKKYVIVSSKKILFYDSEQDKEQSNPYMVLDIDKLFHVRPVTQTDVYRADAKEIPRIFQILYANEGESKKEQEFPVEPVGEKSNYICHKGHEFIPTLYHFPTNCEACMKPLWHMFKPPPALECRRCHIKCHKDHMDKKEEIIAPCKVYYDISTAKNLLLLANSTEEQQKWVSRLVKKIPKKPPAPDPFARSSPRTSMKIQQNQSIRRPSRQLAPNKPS

Compound | IC50 [µM]
4-[1-amino-2-(1-methyl-piperidin-1-yl)-2-oxo-ethyl]-N-pyridin-4-yl-benzamide [Compound 26] | < 0.5
NC(C(=O)NCc1ccccc1)c1ccc(C(=O)Nc2ccncc2)cc1 (stereo not shown) [Compound 1] | < 0.5
CC(NC(=O)C(N)c1ccc(C(=O)Nc2ccncc2)cc1)c1ccccc1 (stereo not shown) [Compound 2, 4-[amino-(1-phenyl-ethylcarbamoyl)-methyl]-N-pyridin-4-yl-benzamide] | < 0.5
CN(Cc1ccccc1)C(=O)C(N)c1ccc(C(=O)Nc2ccncc2)cc1 (stereo not shown) [Compound 3, 4-[amino-(benzyl-methyl-carbamoyl)-methyl]-N-pyridin-4-yl-benzamide] | < 0.5
CCC(NC(=O)C(N)c1ccc(C(=O)Nc2ccncc2)cc1)c1ccccc1 (stereo not shown) [Compound 4, 4-[amino-(1-phenyl-propylcarbamoyl)-methyl]-N-pyridin-4-yl-benzamide] | < 0.5
CC[C@H](NC(=O)C(N)c1ccc(C(=O)Nc2ccncc2)cc1)c1ccccc1 (stereo partly drawn) [Compound 5, 4-[amino-(1-(S)-phenyl-propylcarbamoyl)-methyl]-N-pyridin-4-yl-benzamide] | 0.5 to 5
NC(C(=O)NCc1ccccc1Cl)c1ccc(C(=O)Nc2ccncc2)cc1 (stereo not shown) [Compound 6, 4-[amino-(2-chloro-benzylcarbamoyl)-methyl]-N-pyridin-4-yl-benzamide] | < 0.5
NC(C(=O)NCc1cccc(Cl)c1)c1ccc(C(=O)Nc2ccncc2)cc1 (stereo not shown) [Compound 7, 4-[amino-(3-chloro-benzylcarbamoyl)-methyl]-N-pyridin-4-yl-benzamide] | < 0.5
COc1ccc(CNC(=O)C(N)c2ccc(C(=O)Nc3ccncc3)cc2)cc1 (stereo not shown) [Compound 8, 4-[amino-(4-methoxy-benzylcarbamoyl)-methyl]-N-pyridin-4-yl-benzamide] | < 0.5
COc1ccccc1CNC(=O)C(N)c1ccc(C(=O)Nc2ccncc2)cc1 (stereo not shown) [Compound 9, 4-(amino-(2-methoxy-benzylcarbamoyl)-methyl]-N-pyridin-4-yl-benzamide] | < 0.5
NC(C(=O)NCc1ccccn1)c1ccc(C(=O)Nc2ccncc2)cc1 (stereo not shown) [Compound 10, 4-{amino-[(pyridin-2-ylmethyl)-carbamoyl]-methyl}-N-pyridin-4-yl-benzamide] | 0.5 to 5
NC(C(=O)NCc1ccncc1)c1ccc(C(=O)Nc2ccncc2)cc1 (stereo not shown) [Compound 11, 4-{amino-[(pyridin-4-ylmethyl)-carbamoyl]-methyl}-N-pyridin-4-yl-benzamide] | 0.5 to 5
NC(C(=O)NCc1ccco1)c1ccc(C(=O)Nc2ccncc2)cc1 (stereo not shown) [Compound 12, 4-{amino-[(furan-2-ylmethyl)-carbamoyl]-methyl}-N-pyridin-4-yl-benzamide] | < 0.5
NC(C(=O)N1CCc2ccccc2C1)c1ccc(C(=O)Nc2ccncc2)cc1 (stereo not shown) [Compound 13, 4-[1-amino-2-(3,4-dihydro-1H-isoquinolin-2-yl)-2-oxo-ethyl]-N-pyridin-4-yl-benzamide] | < 0.5
NC(C(=O)NCCc1ccccc1)c1ccc(C(=O)Nc2ccncc2)cc1 (stereo not shown) [Compound 14, 4-(amino-phenethylcarbamoyl-methyl)-N-pyridin-4-yl-benzamide] | < 0.5
NC(C(=O)NC1Cc2ccccc2C1)c1ccc(C(=O)Nc2ccncc2)cc1 (stereo not shown) [Compound 15, 4-[amino-(indan-2-ylcarbamoyl)-methyl]-N-pyridin-4-yl-benzamide] | < 0.5
NC(C(=O)NCCc1ccc(F)cc1)c1ccc(C(=O)Nc2ccncc2)cc1 (stereo not shown) [Compound 16, 4-{amino-[2-(4-fluoro-phenyl)ethylcarbamoyl]-methyl}-N-pyridin-4-yl-benzamide] | < 0.5
NC(C(=O)NCCc1cccs1)c1ccc(C(=O)Nc2ccncc2)cc1 (stereo not shown) [Compound 17, 4-[amino-(2-thiophen-2-yl-ethylcarbamoyl)-methyl]-N-pyridin-4-yl-benzamide] | < 0.5
NC(C(=O)NCCn1cccn1)c1ccc(C(=O)Nc2ccncc2)cc1 (stereo not shown) [Compound 18, 4-[amino-(2-pyrazol-1-yl-ethylcarbamoyl)-methyl]-N-pyridin-4-yl-benzamide] | 0.5 to 5
NC(C(=O)NCCn1ccnc1)c1ccc(C(=O)Nc2ccncc2)cc1 (stereo not shown) [Compound 19, 4-[amino-(2-imidazol-1-yl-ethylcarbamoyl)-methyl]-N-pyridin-4-yl-benzamide] | 0.5 to 5

Compound | IC50 [µM]
NC(C(=O)Nc1ccccc1)c1ccc(C(=O)Nc2ccncc2)cc1 (stereo not shown) [Compound 20, 4-(amino-phenylcarbamoyl-methyl)-N-pyridin-4-yl-benzamide] | 0.5 to 5
COc1ccc(NC(=O)C(N)c2ccc(C(=O)Nc3ccncc3)cc2)cc1 (stereo not shown) [Compound 21] | < 0.5
CCNC(=O)C(N)c1ccc(C(=O)Nc2ccncc2)cc1 (stereo not shown) [Compound 22, 4-(amino-ethylcarbamoyl-methyl)-N-pyridin-4-yl-benzamide] | 0.5 to 5
CC(C)C(C)NC(=O)C(N)c1ccc(C(=O)Nc2ccncc2)cc1 (stereo not shown) [Compound 23, 4-[amino-(1,2-dimethyl-propylcarbamoyl)-methyl]-N-pyridin-4-yl-benzamide] | 0.5 to 5
CCC(C)(C)NC(=O)C(N)c1ccc(C(=O)Nc2ccncc2)cc1 (stereo not shown) [Compound 24, 4-[amino-(1,1-dimethyl-propylcarbamoyl)-methyl]-N-pyridin-4-yl-benzamide] | 0.5 to 5
NC(C(=O)NCC1CC1)c1ccc(C(=O)Nc2ccncc2)cc1 (stereo not shown) [Compound 25, 4-[amino-(cyclopropylmethyl-carbamoyl)-methyl]-N-pyridin-4-yl-benzamide] | 0.5 to 5
CC1CC(C)CN(C(=O)C(N)c2ccc(C(=O)Nc3ccncc3)cc2)C1 (stereo not shown) [Compound 27, 4-[1-amino-2-(3,5-dimethyl-piperidin-1-yl)-2-oxo-ethyl]-N-pyridin-4-yl-benzamide] | < 0.5
NC(C(=O)N1CCC(c2ccccc2)CC1)c1ccc(C(=O)Nc2ccncc2)cc1 (stereo not shown) [Compound 28, 4-[1-amino-2-(4-phenyl-piperidin-1-yl)-2-oxo-ethyl]-N-pyridin-4-yl-benzamide] | 0.5 to 5
NC(C(=O)N1CC=C(c2ccc(F)cc2)CC1)c1ccc(C(=O)Nc2ccncc2)cc1 (stereo not shown) [Compound 29, 4-{1-amino-2-[4-(4-fluoro-phenyl)-3,6-dihydro-2H-pyridin-1-yl]-2-oxo-ethyl}-N-pyridin-4-yl-benzamide] | 0.5 to 5
NC(C(=O)N1CCC(c2nc3ccccc3o2)CC1)c1ccc(C(=O)Nc2ccncc2)cc1 (stereo not shown) [Compound 30, 4-[1-amino-2-(4-benzooxazol-2-yl-piperidin-1-yl)-2-oxo-ethyl]-N-pyridin-4-yl-benzamide] | < 0.5
NC(C(=O)N1CCC(Cc2ccccc2)CC1)c1ccc(C(=O)Nc2ccncc2)cc1 (stereo not drawn) [Compound 31, 4-[1-amino-2-(4-benzyl-piperidin-l-yl)-2-oxo-ethyl]-N-pyridin-4-yl-benzamide] | 0.5 to 5
NC(C(=O)NC1CCCCC1)c1ccc(C(=O)Nc2ccncc2)cc1 (stereo not shown) [Compound 32, 4-(amino-cyclohexylcarbamoyl-methyl)-N-pyridin-4-yl-benzamide] | 0.5 to 5
CC1CCC(NC(=O)C(N)c2ccc(C(=O)Nc3ccncc3)cc2)CC1 (stereo not shown) [Compound 33, 4-[amino-(4-methyl-cyclohexylcarbamoyl)-methyl]-N-pyridin-4-yl-benzamide] | 0.5 to 5
NC(C(=O)N1CCOCC1)c1ccc(C(=O)Nc2ccncc2)cc1 (stereo not shown) [Compound 34, 4-(1-amino-2-mopholin-4-yl-2-oxo-ethyl)-N-pyridin-4-yl-benzamide] | < 0.5
CC1CN(C(=O)C(N)c2ccc(C(=O)Nc3ccncc3)cc2)CC(C)O1 (stereo not shown) [Compound 35, 4-[1-amino-2-(2,6-dimethyl-mopholin-4-yl)-2-oxo-ethyl]-N-pyridin-4-yl-benzamide] | 0.5 to 5
NC(C(=O)N1CCCC(CO)C1)c1ccc(C(=O)Nc2ccncc2)cc1 (stereo not shown) [Compound 36, 4-[1-amino-2-(3-hydroxymethyl-piperidin-1-yl)-2-oxo-ethyl]-N-pyridin-4-yl-benzamide] | 0.5 to 5
NC(C(=O)NCC1CCCO1)c1ccc(C(=O)Nc2ccncc2)cc1 (stereo not shown) [Compound 37, 4-{amino-[(tetrahydro-furan-2-ylmethyl)-carbamoyl]-methyl}-N-pyridin-4-yl-benzamide] | 0.5 to 5
NC(C(=O)N1CCC(O)(c2ccccc2)CC1)c1ccc(C(=O)Nc2ccncc2)cc1 (stereo not shown) [Compound 38, 4-[1-amino-2-(4-hydroxy-4-phenyl-piperidin-1-yl)-2-oxo-ethyl]-N-pyridin-4-yl-benzamide] | 0.5 to 5
COCCNC(=O)C(N)c1ccc(C(=O)Nc2ccncc2)cc1 (stereo not shown) [Compound 39, 4-[amino-(2-methoxy-ethylcarbamoyl)-methyl]-N-pyridin-4-yl-benzamide] | 0.5 to 5
CS(=O)(=O)NCCNC(=O)C(N)c1ccc(C(=O)Nc2ccncc2)cc1 (stereo not shown) [Compound 40, 4-[amino-(2-methanesulfonylamino-ethylcarbamoyl)-methyl]-N-pyridin-4-yl-benzamide] | 0.5 to 5
